Results on 16 compounds are retold here after PMC10864382, “Targeting yeast topoisomerase II by imidazo and triazoloacridinone derivatives resulting in their antifungal activity” (Scientific Reports, 2024).

This test concerns the target T1, yeast topoisomerase II (yTOPOII) (Saccharomyces cerevisiae, UniProt P06786).
T1 construct: gene TOP2; purified enzyme, commercial (Inspiralis Limited, UK)
T1 sequence (P06786 1-1428): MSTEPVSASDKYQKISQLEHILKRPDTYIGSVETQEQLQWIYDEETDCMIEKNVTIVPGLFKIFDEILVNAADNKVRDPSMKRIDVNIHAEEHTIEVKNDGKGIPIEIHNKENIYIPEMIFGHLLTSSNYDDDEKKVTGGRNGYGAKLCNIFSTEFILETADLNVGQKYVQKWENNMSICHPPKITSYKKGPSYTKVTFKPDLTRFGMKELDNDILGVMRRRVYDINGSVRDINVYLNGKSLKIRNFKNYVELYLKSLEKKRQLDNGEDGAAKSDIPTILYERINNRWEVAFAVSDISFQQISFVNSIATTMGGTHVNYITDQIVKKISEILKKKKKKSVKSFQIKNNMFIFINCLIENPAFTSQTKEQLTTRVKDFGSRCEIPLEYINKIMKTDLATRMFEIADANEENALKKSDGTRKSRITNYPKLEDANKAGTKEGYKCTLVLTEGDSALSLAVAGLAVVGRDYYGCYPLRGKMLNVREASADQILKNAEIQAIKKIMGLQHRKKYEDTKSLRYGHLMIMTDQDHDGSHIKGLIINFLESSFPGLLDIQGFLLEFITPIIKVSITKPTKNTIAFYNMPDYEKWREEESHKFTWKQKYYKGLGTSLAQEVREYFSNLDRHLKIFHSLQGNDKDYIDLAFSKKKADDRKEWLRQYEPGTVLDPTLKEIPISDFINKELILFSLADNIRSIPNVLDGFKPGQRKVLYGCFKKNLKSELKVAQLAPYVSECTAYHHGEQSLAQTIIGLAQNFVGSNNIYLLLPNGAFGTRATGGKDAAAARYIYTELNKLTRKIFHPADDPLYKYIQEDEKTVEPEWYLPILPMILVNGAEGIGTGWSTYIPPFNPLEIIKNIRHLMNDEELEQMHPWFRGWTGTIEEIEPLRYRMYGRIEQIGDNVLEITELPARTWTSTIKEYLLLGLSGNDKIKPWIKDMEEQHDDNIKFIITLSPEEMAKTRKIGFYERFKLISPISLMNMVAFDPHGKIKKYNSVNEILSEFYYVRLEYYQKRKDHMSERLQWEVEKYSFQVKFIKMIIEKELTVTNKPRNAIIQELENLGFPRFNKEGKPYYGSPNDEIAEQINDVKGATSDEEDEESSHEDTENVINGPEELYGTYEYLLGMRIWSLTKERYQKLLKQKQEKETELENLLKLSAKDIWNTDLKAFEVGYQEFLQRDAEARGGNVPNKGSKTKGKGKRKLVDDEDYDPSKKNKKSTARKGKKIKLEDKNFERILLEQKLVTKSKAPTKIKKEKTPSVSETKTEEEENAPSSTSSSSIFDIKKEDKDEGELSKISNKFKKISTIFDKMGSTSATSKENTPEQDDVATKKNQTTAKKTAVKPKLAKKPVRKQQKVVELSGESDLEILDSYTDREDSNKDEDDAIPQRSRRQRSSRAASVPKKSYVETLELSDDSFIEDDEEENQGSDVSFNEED
The test can be described thus: gel-based relaxation of supercoiled plasmid DNA, densitometry. Format: biochemical. An excerpt: gel-based relaxation of supercoiled plasmid DNA, densitometry on yeast topoisomerase II (yTOPOII)

For orientation: IC50 means the midpoint of a concentration-inhibition curve. Compound `CN(C)CCCNc1ccc2nnn3c4ccc(O)cc4c(=O)c1c23` [C-1305] returned an IC50 of 18.2 ± 1.4 µM. As to `CCN(CC)CCNc1ccc2ncn3c4ccc(O)cc4c(=O)c1c23` [C-1311], 16.6 ± 1.3 µM corresponded to half-maximal inhibition (IC50).

As for `CCN(CC)CCNc1ccc2ncn3c4ccc(OC)cc4c(=O)c1c23` [C-1330], half-maximal inhibition (IC50) required 13.7 ± 1.1 µM.

For `Cc1ccc2c(c1)c(=O)c1c(NCCCN(C)C)ccc3nnn2c31` [IKE1, 5-[-(3′-Dimethylamino)propylamino]-8-methyl-6H-[1–3]-triazolo[4,5,l-de]acridin-6-one], the IC50 came to 13.4 ± 1.1 µM.

For the compound `CCN(CC)CCCNc1ccc2nnn3c4ccc(C)cc4c(=O)c1c23` [IKE2, 5-[-(3′-Diethylamino)propylamino]-8-methyl-6H-[1–3]-triazolo[4,5,l-de]acridin-6-one], 13.3 ± 1.1 µM corresponded to half-maximal inhibition (IC50). Then `COc1ccc2c(c1)c(=O)c1c(NCCCN(C)C)ccc3nnn2c31` [IKE3, 5-[-(3′-Dimethylamino)propylamino]-8-methoxy-6H-[1–3]-triazolo[4,5,l-de]acridin-6-one], with 13.2 ± 1.1 µM; and `CCN(CC)CCCNc1ccc2nnn3c4ccc(OC)cc4c(=O)c1c23` [IKE4, 5-[-(3′-Diethylamino)propylamino]-8-methoxy-6H-[1–3]-triazolo[4,5,l-de]acridin-6-one], with 13.3 ± 1.2 µM; and `COc1ccc2c(c1)c(=O)c1c(NCCCN)ccc3nnn2c31` [IKE5, 5-[-(3′-Aminopropyl)amino]-8-methoxy-6H-[1–3]-triazolo[4,5,l-de]acridin-6-one], with 7.7 ± 1.1 µM. As for `Cc1ccc2c(c1)c(=O)c1c(NCCCN)ccc3nnn2c31` [IKE6, 5-[-(3′-Aminopropyl)amino]-8-methyl-6H-[1–3]-triazolo[4,5,l-de]acridin-6-one], the figure is 10.9 ± 1.1 µM; as for `COc1ccc2c(c1)c(=O)c1c(NCCCNC(=O)[C@@H](N)CCCCN)ccc3nnn2c31` [IKE7, N′-{3-[(8-methoxy-6-oxo-6H-[1,2,3]triazolo[4,5,1-de]acridin-5-yl)amino]propyl} lysinamide], 13.4 ± 1.1 µM; as for `Cc1ccc2c(c1)c(=O)c1c(NCCCNC(=O)[C@@H](N)CCCCN)ccc3nnn2c31` [IKE8, N′-{3-[(8-methyl-6-oxo-6H-[1,2,3]triazolo[4,5,1-de]acridin-5-yl)amino]propyl} lysinamide], 15.2 ± 1.2 µM.

In turn, `Cc1ccc2c(c1)c(=O)c1c(NCCN)ccc3ncn2c31` [IKE10, 5-[(2-aminoethyl)amino]-8-methyl-6H-imidazo[4,5,1-de]acridin-6-one] gave an IC50 of 15.5 ± 1.3 µM. Compound `Cc1ccc2c(c1)c(=O)c1c(NCCNC(=O)[C@@H](N)CCCCN)ccc3ncn2c31` [IKE11, N-{2-[(8-methyl-6-oxo-6H-imidazo[4,5,1-de]acridin-5-yl)amino]ethyl}lysinamide] displayed a concentration for half-maximal inhibition (IC50) of 14.9 ± 1.1 µM. As for `NCCNc1ccc2ncn3c4ccc(O)cc4c(=O)c1c23` [IKE12, 5-[(2-aminoethyl)amino]-8-hydroxy-6H-imidazo[4,5,1-de]acridin-6-one], the figure is 10.9 ± 1.1 µM; as for `COc1ccc2c(c1)c(=O)c1c(NCCN)ccc3ncn2c31` [IKE13, 5-[(2-aminoethyl)amino]-8-methoxy-6H-imidazo[4,5,1-de]acridin-6-one], 6.2 ± 1.2 µM; as for `COc1ccc2c(c1)c(=O)c1c(NCCNC(=O)[C@@H](N)CCCCN)ccc3ncn2c31` [IKE14, N-{2-[(8-methoxy-6-oxo-6H-imidazo[4,5,1-de]acridin-5-yl)amino]ethyl}lysinamide], 14.7 ± 1.1 µM.
